{"source": "paper PMC5309245", "about": "“Discovery and Characterization of Diazenylaryl Sulfonic Acids as Inhibitors of Viral and Bacterial Neuraminidases” (Frontiers in Microbiology, 2017)", "key": {"[1]": {"tested_on": "influenza virus A/WSN/33 NA-I427M"}, "[2]": {"target": "influenza virus A/WSN/33 NA-H274Y (Influenza A virus, UniProt P03470, H259Y)", "format": "biochemical, influenza A virus A/WSN/1933 (H1N1)"}, "[3]": {"target": "influenza virus A/WSN/33 NA-Q136L (Influenza A virus, UniProt P03470, Q120L)", "format": "biochemical, influenza A virus A/WSN/1933 (H1N1)"}, "[4]": {"target": "influenza virus A/WSN/33 NA-N294S (Influenza A virus, UniProt P03470, N279S)", "format": "biochemical, influenza A virus A/WSN/1933 (H1N1)"}, "[5]": {"target": "influenza virus A/WSN/33 NA-Y155H (Influenza A virus, UniProt P03470, Y139H)", "format": "biochemical, influenza A virus A/WSN/1933 (H1N1)"}, "[6]": {"tested_on": "influenza virus A/WSN/33 NA-I427Q"}, "[7]": {"target": "influenza virus A/WSN/33 NA-I427M (Influenza A virus, UniProt P03470, I411M)", "settings": "read-out: IC50, NA-I427M"}, "[8]": {"target": "IAV WSN/33 NA-wt (whole virus) (Influenza A virus, UniProt P03470)", "experiment": "biochemical", "parameters": "species or system influenza A virus A/WSN/1933 (H1N1)", "settings": "read-out: IC50, NA-wt"}, "[9]": {"target": "influenza virus A/WSN/33 NA-I427Q (Influenza A virus, UniProt P03470, I411Q)", "settings": "read-out: IC50, NA-I427Q"}}, "data": [{"smiles": "Cc1cc(N=Nc2ccc(N=Nc3c(O)c(S(=O)(=O)O)cc4cc(S(=O)(=O)O)ccc34)cc2C)ccc1N=Nc1ccc2cc(S(=O)(=O)O)cc(S(=O)(=O)O)c2c1", "note": "[Compound 1, 7-[2-[4-[2-[4-[2-(2-hydroxy-3,6-disulfo-1-naphthalenyl)diazenyl]-2-methylphenyl]diazenyl]-2-methylphenyl]diazenyl]-1,3-naphthalenedisulfonic acid]", "values": [{"measurement": "FC, NA-I427M", "setting": "[1]", "value": 2}, {"measurement": "FC, NA-H274Y", "setting": "[2]", "value": 3}, {"measurement": "FC, NA-Q136L", "setting": "[3]", "value": 2}, {"measurement": "FC, NA-N294S", "setting": "[4]", "value": 1}, {"measurement": "FC, NA-Y155H", "setting": "[5]", "value": 1}, {"measurement": "FC, NA-I427Q", "setting": "[6]", "value": 1}]}, {"smiles": "O=S(=O)(O)c1ccc2c(/N=N/c3ccc(Sc4ccc(/N=N/c5c(O)ccc6cc(S(=O)(=O)O)ccc56)cc4)cc3)c(O)ccc2c1", "note": "[Compound 2]", "values": [{"measurement": "FC, NA-I427M", "setting": "[1]", "value": 1}, {"measurement": "FC, NA-H274Y", "setting": "[2]", "value": 2}, {"measurement": "FC, NA-Q136L", "setting": "[3]", "value": 2}, {"measurement": "FC, NA-N294S", "setting": "[4]", "value": 1}, {"measurement": "FC, NA-Y155H", "setting": "[5]", "value": 0.2}, {"measurement": "FC, NA-I427Q", "setting": "[6]", "value": 1}]}, {"smiles": "Cc1ccccc1/N=N/c1ccc(/N=N/c2c(O)ccc3cc(S(=O)(=O)O)cc(S(=O)(=O)O)c23)c(C)c1", "note": "[Compound 5]", "values": [{"measurement": "FC, NA-I427M", "setting": "[1]", "value": 2}, {"measurement": "FC, NA-H274Y", "setting": "[2]", "value": 3}, {"measurement": "FC, NA-Q136L", "setting": "[3]", "value": 2}, {"measurement": "FC, NA-N294S", "setting": "[4]", "value": 3}, {"measurement": "FC, NA-Y155H", "setting": "[5]", "value": 1}, {"measurement": "FC, NA-I427Q", "setting": "[6]", "value": 2}]}, {"smiles": "CC(=O)N[C@H]1[C@H]([C@H](O)[C@H](O)CO)OC(C(=O)O)=C[C@@H]1O", "note": "[DANA, 2,3-dehydro-2-deoxy-N-acetylneuraminic acid, reference compound]", "values": [{"measurement": "FC, NA-I427M", "setting": "[1]", "value": 1}, {"measurement": "IC50", "setting": "[7]", "value": "2210 ± 620", "unit": "nM"}, {"measurement": "FC, NA-H274Y", "setting": "[2]", "value": 1}, {"measurement": "IC50", "setting": "[2]", "value": "2510 ± 1380", "unit": "nM"}, {"measurement": "FC, NA-Q136L", "setting": "[3]", "value": 1}, {"measurement": "IC50", "setting": "[3]", "value": "2330 ± 1320", "unit": "nM"}, {"measurement": "FC, NA-N294S", "setting": "[4]", "value": 3}, {"measurement": "IC50", "setting": "[4]", "value": "8120 ± 2070", "unit": "nM"}, {"measurement": "FC, NA-Y155H", "setting": "[5]", "value": 3}, {"measurement": "IC50", "setting": "[5]", "value": "8360 ± 3130", "unit": "nM"}, {"measurement": "IC50", "setting": "[8]", "value": "2440 ± 1080", "unit": "nM"}, {"measurement": "IC50", "setting": "[9]", "value": "12800 ± 750", "unit": "nM"}]}]}
